# From publication PMC8457749, “Design, Synthesis, and Anticancer Activity Evaluation of Hybrids of Azoles and Barbituric Acids” (Iranian Journal of Pharmaceutical Research : IJPR, 2021)
# Like-named read-outs stand apart in the source and are kept apart here.
# How the values were obtained:
# [1] = tested on: MCF-7 cells; experiment: MTT antiproliferative assay, MCF-7; format: cell-based, human; conditions: Homo sapiens, MCF7, 48 h; for inhibition at 100 µM: read-out: Growth Inhibition at 100 μM (%) MCF-7; for IC50: read-out: IC50 MCF-7
# Method: (§1) The antiproliferative activity of the target compounds against the panel of three different human cancer cell lines, liver (BEL-7402), colorectal (HCT-116), and breast (MCF-7) cell lines was evaluated using a standard MTT-based colorimetric assay. All cell lines were obtained from the Key Laboratory of Natural Resources and Functional Molecules of the Changbai Mountain (Yanbian University) and maintained in Dulbecco’s modified Eagle’s medium (DMEM) and RPMI Media 1640 (RPMI1640), supplemented with 10% foetal bovine serum (FBS) at 37 °C in a humidified atmosphere containing 5% CO2.
# (§2) The cells were plated in 96-well plates at appropriate densities to ensure exponential growth throughout the experimental period (9 × 10^3 cells per well) and then allowed to adhere for 24 h. the cells were then treated for 48 h with each compound. After 48 h of incubation, 10 μL of MTT solution was added to each well to a final concentration of 2 mg/mL. the plates were then incubated for a further 4 h. After incubation, the MTT solution was removed and 150 μL of DMSO was added to each well for coloration. The plates were shaken vigorously for 10 min at room temperature to ensure complete solubilisation. The optometric density (OD) was read on a microplate reader (EL × 800, BioTek, Highland Park, Winooski, VT, USA) at 492 nm, and the data were subsequently analysed. The percentage of cell growth inhibition was calculated from the following Equation:
# (§3) Inhibitory rate (%) = [1 − (ODtreated − ODblank)/(ODcontrol − ODblank)] × 100%
# (§4) To obtain the antiproliferative activity of compounds 3a-3s and 4a-4d, the compounds were selected in the same way with four serial concentrations (1, 10, 50 and 100 μM) of those compounds. The optometric density (OD) reading was then used to calculate the IC50.
# [2] = tested on: BEL-7402 cells; experiment: MTT antiproliferative assay, BEL-7402; format: cell-based, human; conditions: Homo sapiens; for inhibition at 100 µM: read-out: Growth Inhibition at 100 μM (%) BEL-7402; for IC50: read-out: IC50 BEL-7402
# Method: as §1, §2, §3, §4
# [3] = tested on: HCT-116 cells; experiment: MTT antiproliferative assay, HCT-116; format: cell-based, human; conditions: Homo sapiens; for inhibition at 100 µM: read-out: Growth Inhibition at 100 μM (%) HCT-116; for IC50: read-out: IC50 HCT-116
# Method: as §1, §2, §3, §4
Structure (SMILES),inhibition at 100 µM [1],"inhibition at 100 µM ([2]; Bel-7402, 48 h)","inhibition at 100 µM ([3]; HCT-116, 48 h)",IC50 [1],"IC50 ([2]; Bel-7402, 48 h)","IC50 ([3]; HCT-116, 48 h)",melting point,"IC50 ([2]; Bel-7402, 48 h, MTT)","IC50 ([3]; HCT-116, 48 h, MTT)"
"O=C1NC(=O)C(=Cc2cn(Cc3ccccc3)c3ccccc23)C(=O)N1 [A, 5-((1-benzyl-1H-indol-3-yl)methylene)pyrimidine-2,4,6 (1H,3H,5H)-trione, reference compound]",11.8 ± 1%,19.6 ± 2.1%,26.2 ± 1.8%,–,–,–,–,–,–
O=C1CC(=O)NC(=O)N1 [Barbituric acid],< 5%,11.7 ± 1%,14.3 ± 2.2%,> 100 µM,> 100 µM,> 100 µM,–,–,–
"O=C1NC(=O)C(=Cc2cn(-c3ccccc3)nn2)C(=O)N1 [Compound 3a, 5((1-phenyl-1H-1,2,3-triazol-4-yl)methylene)pyrimidine-2,4,6(1H,3H,5H)-trione]",30.9 ± 2.6%,54 ± 3.4%,42.7 ± 2.5%,–,–,–,250 °C,–,–
"O=C1NC(=O)C(=Cc2cn(-c3ccccc3F)nn2)C(=O)N1 [Compound 3b, 5-((1-(2-fluorophenyl)-1H-1,2,3-triazol-4-yl)methylene)pyrimidine-2,4,6(1H,3H,5H)-trione]",27.5 ± 1.6%,34.1 ± 4.3%,67.6 ± 3.8%,> 100 µM,> 100 µM,78.2 ± 2.34 µM,250 °C,–,–
"O=C1NC(=O)C(=Cc2cn(-c3ccc(F)cc3)nn2)C(=O)N1 [Compound 3d, 5-((1-(4-fluorophenyl)-1H-1,2,3-triazol-4-yl)methylene)pyrimidine-2,4,6(1H,3H,5H)-trione]",34.1 ± 2.3%,31.9 ± 2.8%,31.6 ± 1.9%,–,–,–,250 °C,–,–
"O=C1NC(=O)C(=Cc2cn(-c3ccccc3Cl)nn2)C(=O)N1 [Compound 3e, 5-((1-(2-chlorophenyl)-1H-1,2,3-triazol-4-yl)methylene)pyrimidine-2,4,6(1H,3H,5H)-trione]",19.8 ± 1.5%,39.6 ± 4.1%,14.8 ± 0.9%,–,–,–,250 °C,–,–
"O=C1NC(=O)C(=Cc2cn(-c3ccc(Cl)c(Cl)c3)nn2)C(=O)N1 [Compound 3i, 5-((1-(3,4-dichlorophenyl)-1H-1,2,3-triazol-4-yl)methylene)pyrimidine-2,4,6(1H,3H,5H)-trione]",14.2 ± 1.5%,47.2 ± 4.7%,69.3 ± 2.9%,> 100 µM,> 100 µM,55.2 ± 2.31 µM,250 °C,–,–
"O=C1NC(=O)C(=Cc2cn(-c3ccccc3Br)nn2)C(=O)N1 [Compound 3j, 5-((1-(2-bromophenyl)-1H-1,2,3-triazol-4-yl)methylene)pyrimidine-2,4,6(1H,3H,5H)-trione]",42.7 ± 2.6%,36.8 ± 2.1%,46.3 ± 3.4%,–,–,–,250 °C,–,–
"O=C1NC(=O)C(=Cc2cn(-c3ccc(Br)cc3)nn2)C(=O)N1 [Compound 3l, 5-((1-(4-bromophenyl)-1H-1,2,3-triazol-4-yl)methylene)pyrimidine-2,4,6(1H,3H,5H)-trione]",< 5%,44.8 ± 3.8%,49.8 ± 3.8%,–,–,–,250 °C,–,–
"COc1ccccc1-n1cc(C=C2C(=O)NC(=O)NC2=O)nn1 [Compound 3m, 5-((1-(2-methoxyphenyl)-1H-1,2,3-triazol-4-yl)methylene)pyrimidine-2,4,6(1H,3H,5H)-trione]",7.9 ± 1.1%,25.6 ± 2.1%,44.2 ± 3.4%,–,–,–,250 °C,–,–
"COc1cccc(-n2cc(C=C3C(=O)NC(=O)NC3=O)nn2)c1 [Compound 3n, 5-((1-(3-methoxyphenyl)-1H-1,2,3-triazol-4-yl)methylene)pyrimidine-2,4,6(1H,3H,5H)-trione]",23.3 ± 3.5%,36.7 ± 19%,67.1 ± 5.6%,> 100 µM,> 100 µM,30.7 ± 2.1 µM,250 °C,–,–
"COc1ccc(-n2cc(C=C3C(=O)NC(=O)NC3=O)nn2)cc1 [Compound 3o, 5-((1-(4-methoxyphenyl)-1H-1,2,3-triazol-4-yl)methylene)pyrimidine-2,4,6(1H,3H,5H)-trione]",22.6 ± 2.7%,28.4 ± 3.1%,7.9 ± 0.6%,–,–,–,250 °C,–,–
"COc1ccc(-n2cc(C=C3C(=O)NC(=O)NC3=O)nn2)cc1OC [Compound 3p, 5-((1-(3,4-dimethoxyphenyl)-1H-1,2,3-triazol-4-yl)methylene)pyrimidine-2,4,6(1H,3H,5H)-trione]",18.6 ± 1.7%,38 ± 1.9%,43.9 ± 2.9%,–,–,–,250 °C,–,–
"Cc1cccc(-n2cc(C=C3C(=O)NC(=O)NC3=O)nn2)c1 [Compound 3q, 5-((1-m-tolyl-1H-1,2,3-triazol-4-yl)methylene)pyrimidine-2,4,6(1H,3H,5H)-trione]",91.9 ± 2.4%,23.7 ± 2.1%,94.8 ± 6.3%,29.8 ± 2.01 µM,> 100 µM,32.8 ± 1.9 µM,250 °C,–,–
"Cc1ccc(-n2cc(C=C3C(=O)NC(=O)NC3=O)nn2)cc1 [Compound 3r, 5-((1-p-tolyl-1H-1,2,3-triazol-4-yl)methylene)pyrimidine-2,4,6(1H,3H,5H)-trione]",< 5%,39.8 ± 3.1%,52.5 ± 2%,–,–,–,250 °C,–,–
"Cc1nn(-c2ccccc2)c(C)c1C=C1C(=O)NC(=O)NC1=O [Compound 4a, 5-((3,5-dimethyl-1-phenyl-1H-pyrazol-4-yl)methylene)pyrimidine-2,4,6(1H,3H,5H)-trione]",< 5%,38.7 ± 1%,30.9 ± 3.1%,–,–,–,250 °C,–,–
"Cc1nn(-c2cccc(F)c2)c(C)c1C=C1C(=O)NC(=O)NC1=O [Compound 4b, 5-((1-(3-fluorophenyl)-3,5-dimethyl-1H-pyrazol-4-yl)methylene)pyrimidine-2,4,6(1H,3H,5H)-trione]",< 5%,14.7 ± 1.2%,9.1 ± 1.2%,–,–,–,250 °C,–,–
"Cc1nn(-c2cccc(Cl)c2)c(C)c1C=C1C(=O)NC(=O)NC1=O [Compound 4c, 5-((1-(3-chlorophenyl)-3,5-dimethyl-1H-pyrazol-4-yl)methylene)pyrimidine-2,4,6(1H,3H,5H)-trione]",15.5 ± 1.1%,64 ± 2.1%,58.7 ± 5.2%,> 100 µM,48.2 ± 0.78 µM,47.5 ± 3.21 µM,250 °C,–,–
"Cc1ccc(-n2nc(C)c(C=C3C(=O)NC(=O)NC3=O)c2C)cc1 [Compound 4d, 5-((3,5-dimethyl-1-p-tolyl-1H-pyrazol-4-yl)methylene)pyrimidine-2,4,6(1H,3H,5H)-trione]",< 5%,38.1 ± 1.3%,28.4 ± 3%,–,–,–,250 °C,–,–
"O=c1[nH]cc(F)c(=O)[nH]1 [Compound 5-FU, 5-fluorouracil, reference compound]",–,–,–,–,–,–,–,21.3 ± 0.56 µM,24.8 ± 0.78 µM
